Legend:
Assay type in all cases: biochemical
[1] = target: T1, Hordeum HPPD (SEQ ID: 2) F377L (Hordeum vulgare, UniProt O48604, A164G/F377L/R146V/R147D/R148G); assay: HPPD activity assay, in vitro characterization of HPPD mutants; conditions: Table 16, Hordeum wild-type = 1
T1 construct: His (N); made in house; host or cells: E. coli BL21 (DE3)
Description: (§1) HPPD produces homogentisic acid and CO2 from 4-hydroxyphenylpyruvate (4-HPP) and 02. The activity assay for HPPD is based on the analysis of homogentisic acid by reversed phase HPLC. The assay mixture can contain 150 mM potassium phosphate buffer pH 7.0, 50 mM L-ascorbic acid, 100 μM Catalase (Sigma-Aldrich), 1 μM FeSO4 and 0.2 units of purified HPPD enzyme in a total volume of 505 μl. 1 unit is defined as the amount of enzyme that is required to produce 1 nmol of HGA per minute at 20° C.
After a preincubation of 30 min the reaction is started by adding 4-HPP to a final concentration of 0.05 mM. The reaction is allowed to proceed for 45 min at room temperature. The reaction is stopped by the addition of 50 μl of 4.5 M phosphoric acid. […]
(§2) 5 μl of the cleared sample is analyzed on an UPLC HSS T3 column (particle size 1.8 μm, dimensions 2.1×50 mm; Waters) by isocratic elution using 90% 20 mM NaH2PO4 pH 2.2, 10% methanol (v/v).
(§3) HGA is detected electrochemically at 750 mV (mode: DC; polarity: positive) and quantified by integrating peak areas (Empower software; Waters).
Inhibitors are dissolved in DMSO (dimethylsulfoxide) to a concentration of 0.5 mM. […] IC50 values are calculated using non-linear regression.
Purified, mutant HPPD enzymes are obtained by the methods described above. […] Weighted means (by standard error) of Km and IC50 values are calculated from at least three independent experiments. […]

[2] = test system: Rhodococcus HPPD (Seq ID 44); assay: HPPD activity assay, tolerance index; conditions: Table 12; Rhodococcus (Seq ID 44); normalized to reference SEQ ID NO:53
Description: as §1
(§4) After a preincubation of 30 min the reaction is started by adding 4-HPP to a final concentration of 0.05 mM. The reaction is allowed to proceed for 45 min at room temperature. The reaction is stopped by the addition of 50 μl of 4.5 M phosphoric acid. The sample is filtered using a […] pore size PVDF filtration device.
as §2, §3
(§5) Inhibitors are dissolved in DMSO (dimethylsulfoxide) to a concentration of 0.5 mM. From this stock solution serial five-fold dilutions are prepared in DMSO, which are used in the assay. The respective inhibitor solution accounts for 1% of the assay volume. Thus, final inhibitor concentrations range from 5 μM to 320 μM, respectively. […] IC50 values are calculated using non-linear regression.
(§6) Using methods which are described in the above examples or well known in the art, purified, recombinant wild-type HPPD enzymes are characterized with respect to their kinetic properties and sensitivity towards HPPD inhibiting herbicides. Apparent michaelis constants (Km) and maximal reaction velocities (Vmax) are calculated by non-linear regression with the software GraphPad Prism 5 (GraphPad Software, La Jolla, USA) using a substrate inhibition model. […] Weighted means (by standard error) of Km and IC50 values are calculated from at least three independent experiments. […]

[3] = test system: Rhodococcus HPPD (Seq ID 46); assay: HPPD activity assay, tolerance index; conditions: Table 12; Rhodococcus (Seq ID 46); normalized to reference SEQ ID NO:53
Description: as §1, §4, §2, §3, §5, §6

[4] = test system: Synechococcus HPPD; assay: HPPD activity assay, tolerance index; conditions: Table 12, normalized to reference SEQ ID NO:53
Description: as §1, §4, §2, §3, §5, §6

[5] = target: T2, Arabidopsis HPPD (SEQ ID: 53) M335H, P336A, E363Q (Arabidopsis thaliana, UniProt P93836, E363Q/M335H/P336A); assay: HPPD activity assay, in vitro characterization of HPPD mutants; conditions: Table 15, Arabidopsis HPPD variant M335H, wild-type = 1
T2 construct: PCR-based site directed mutagenesis of pEXP5-NT/TOPO®-AtHPPD is done; His6 (N); made in house; host or cells: E. coli BL21 (DE3)
Description: as §1, §4, §2, §3
(§7) Inhibitors are dissolved in DMSO (dimethylsulfoxide) to a concentration of 0.5 mM. From this stock solution serial five-fold dilutions are prepared in DMSO, which are used in the assay. The respective inhibitor solution accounts for 1% of the assay volume. […] Activities are normalized by setting the uninhibited enzyme activity to 100%. IC50 values are calculated using non-linear regression.
(§8) Purified, mutant HPPD enzymes are obtained by the methods described above. Dose response and kinetic measurements are carried out using the described HPPD activity assay. Apparent michaelis constants (Km) and maximal reaction velocities (Vmax) are calculated by non-linear regression with the software GraphPad Prism 5 (Graph Pad Software, La Jolla, USA) using a substrate inhibition model. […] Weighted means (by standard error) of Km and IC50 values are calculated from at least three independent experiments.
(§9) Field performance of the optimized HPPD enzyme, which is used as a herbicide tolerance trait may depend not only on its lack of sensitivity towards HPPD inhibiting herbicides but also on its activity. To assess the potential performance of a herbicide tolerance trait a tolerance index (TI) is calculated using the following formula: […]
(§10) Easy comparison and ranking of each trait is enabled by normalizing tolerance indexes on Arabidopsis wild-type HPPD.

[6] = target: T3, Hordeum HPPD (SEQ ID: 2) G407C (Hordeum vulgare, UniProt O48604, A164G/G407C/R146V/R147D/R148G); assay: as above; conditions: Table 16, Hordeum wild-type = 1
T3 construct: His (N); made in house; host or cells: E. coli BL21 (DE3)
Description: as §1, §4, §2, §3, §7, §8, §9, §10

[7] = target: T4, Hordeum HPPD (SEQ ID: 2) L353M, P321R, V212I (Hordeum vulgare, UniProt O48604, L353M/P321R/V212I); assay: as above; conditions: Table 16, Hordeum wild-type = 1
T4 construct: His (N); made in house; host or cells: E. coli BL21 (DE3)
Description: as §1, §4, §2, §3, §7, §8, §9, §10

T3 sequence (O48604 whole entry R146V/R147D/R148G/A164G/G407C): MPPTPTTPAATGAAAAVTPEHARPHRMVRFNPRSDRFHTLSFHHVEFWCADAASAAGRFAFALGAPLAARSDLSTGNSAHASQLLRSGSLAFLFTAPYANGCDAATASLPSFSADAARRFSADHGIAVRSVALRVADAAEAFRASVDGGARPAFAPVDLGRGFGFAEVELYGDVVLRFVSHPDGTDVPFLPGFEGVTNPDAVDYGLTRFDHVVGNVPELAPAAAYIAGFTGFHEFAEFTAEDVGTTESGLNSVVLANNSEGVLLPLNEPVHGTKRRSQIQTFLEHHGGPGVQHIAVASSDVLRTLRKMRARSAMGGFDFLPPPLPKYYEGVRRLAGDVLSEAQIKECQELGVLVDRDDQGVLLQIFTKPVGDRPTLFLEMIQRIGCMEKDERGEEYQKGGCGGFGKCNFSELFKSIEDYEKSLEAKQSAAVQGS
T2 sequence (P93836 whole entry M335H/P336A/E363Q): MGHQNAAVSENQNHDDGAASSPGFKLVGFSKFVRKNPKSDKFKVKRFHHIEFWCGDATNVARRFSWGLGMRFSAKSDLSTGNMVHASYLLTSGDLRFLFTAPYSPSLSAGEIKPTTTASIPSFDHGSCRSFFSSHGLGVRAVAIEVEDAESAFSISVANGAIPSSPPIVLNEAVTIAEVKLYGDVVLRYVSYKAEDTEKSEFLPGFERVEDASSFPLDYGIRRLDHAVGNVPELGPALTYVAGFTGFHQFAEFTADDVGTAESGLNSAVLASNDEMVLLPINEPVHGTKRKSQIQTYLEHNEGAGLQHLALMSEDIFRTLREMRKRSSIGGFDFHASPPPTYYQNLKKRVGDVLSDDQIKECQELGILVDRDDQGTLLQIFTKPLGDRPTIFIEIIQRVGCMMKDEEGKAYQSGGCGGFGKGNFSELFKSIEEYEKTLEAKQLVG
T1 sequence (O48604 whole entry R146V/R147D/R148G/A164G/F377L): as the sequence (O48604 whole entry R146V/R147D/R148G/A164G/G407C) above, with F377L, C407G counted along it
T4 sequence (O48604 whole entry R146V/R147D/R148G/A164G/V212I/P321R/L353M): as the sequence (O48604 whole entry R146V/R147D/R148G/A164G/G407C) above, with V212I, P321R, L353M, C407G counted along it

## Cc1c(C(=O)Nc2nnnn2C)ccc2c1C(=O)C(C)(C)CS2(=O)=O [Inhibitor 2, 3,3,5-trimethyl-N-(1-methyltetrazol-5-yl)-1,1,4-trioxo-2H-thiochromene-6-carboxamide]
[1]
  TI Inhibitor 2 (normalized tolerance index): 4.6

## COc1no[nH]/c1=N/C(=O)c1ccc2c(c1Cl)S(=O)(=O)CCC2(C)C [Inhibitor 1, (NE)-8-chloro-N-(4-methoxy-1,2,5-oxadiazol-3-ylidene)-4,4-dimethyl-1,1-dioxo-2,3-dihydrothiochromene-7-carboxamide]
[2]
  TI Inhibitor 1 (normalized tolerance index): 25.2
[3]
  TI Inhibitor 1 (normalized tolerance index): 1.2
[4]
  TI Inhibitor 1 (normalized tolerance index): 11.9
[5]
  TI Inhibitor 1 (normalized tolerance index): 0.3
[6]
  TI Inhibitor 1 (normalized tolerance index): 3.3
[7]
  TI Inhibitor 1 (normalized tolerance index): 2.9

Source: patent publication US20160102317A1, “PLANTS HAVING INCREASED TOLERANCE TO HERBICIDES” (BASF SE, priority 2013, published 2016)
